{"source": "patent US20260248787A9", "about": "“MEDICAMENT FOR TREATING CANCER COMPRISING OPTICALLY ACTIVE AZABICYCLO RING DERIVATIVE” (Sumitomo Pharma Co., Ltd., priority 2023, published 2026)", "test": "Phase 1/2 first-in-human clinical study, safety evaluation (DLT, TEAE, SAE)", "description": "Arm A: Patients without azole antifungal treatment within 7 days (or 21 days for isavuconazole) of first dose of the present compound\nArm B: Patients receiving posaconazole, voriconazole, or fluconazole antifungal prophylaxis at enrollment\nThe safety of each dose level also was evaluated by the SRC, which was comprised of all investigators participating in the study and selected Sponsor study team members. The dose recommended by the BLRM method was treated as guidance and was integrated with a clinical assessment of toxicity information and review of other available data, including safety, PK, pharmacodynamic, and laboratory data.\nWhen the Dose Limiting Toxicity (DLT) evaluation for each cohort was completed, the SRC determined a next dose level based on the DLT and other available data, including safety, PK, pharmacodynamic, and laboratory data with reference to the Bayesian Logistic Regression Model (BLRM) recommendation.\nDose escalation decisions were made after all patients in a dose level cohort have at least completed Cycle 1. All available data were presented along with the BLRM predictions for toxicity probabilities at the potential next dose levels. The SRC then determined the dose(s) for the next cohort(s).", "data": [{"smiles": "C=C1C[C@@H]2CC[C@H]1[C@@H](C(=O)N1CCC3(CC1)CN(c1ncncc1Oc1ccc(F)cc1C(=O)N(C(C)C)C(C)C)C3)N2", "note": "[the present compound, 5-fluoro-2-[(4-{7-[(1S,3S,4R)-5-methylidene-2-azabicyclo[2.2.2]octane-3-carbonyl]-2,7-diazaspiro[3.5]nonan-2-yl}pyrimidin-5-yl)oxy]-N,N-di(propan-2-yl)benzamide]", "values": [{"measurement": "TEAE: Infections and Infestations", "setting": "Arm A N=14, ≥Grade 3", "value": "6 (42.9) n (%)"}, {"measurement": "TEAE: Investigations", "setting": "Arm A N=14, ≥Grade 3", "value": "4 (28.6) n (%)"}, {"measurement": "TEAE: Metabolism and nutrition disorders", "setting": "Arm A N=14, ≥Grade 3", "value": "1 (7.1) n (%)"}, {"measurement": "TEAE: Musculoskeletal and connective tissue disorders", "setting": "Arm A N=14, ≥Grade 3", "value": "0 n (%)"}, {"measurement": "TEAE: Nausea", "setting": "Arm A N=14, ≥Grade 3", "value": "0 n (%)"}, {"measurement": "TEAE: Nervous System Disorders", "setting": "Arm A N=14, ≥Grade 3", "value": "2 (14.3) n (%)"}, {"measurement": "TEAE: Oedema peripheral", "setting": "Arm A N=14, ≥Grade 3", "value": "0 n (%)"}, {"measurement": "TEAE: Pain in extremity", "setting": "Arm A N=14, ≥Grade 3", "value": "0 n (%)"}, {"measurement": "TEAE: Platelet count decreased", "setting": "Arm A N=14, ≥Grade 3", "value": "1 (7.1) n (%)"}, {"measurement": "TEAE: Pneumonia", "setting": "Arm A N=14, ≥Grade 3", "value": "2 (14.3) n (%)"}, {"measurement": "TEAE: Pruritus", "setting": "Arm A N=14, ≥Grade 3", "value": "0 n (%)"}, {"measurement": "TEAE: Pyrexia", "setting": "Arm A N=14, ≥Grade 3", "value": "0 n (%)"}, {"measurement": "TEAE: Respiratory, thoracic and mediastinal disorders", "setting": "Arm A N=14, ≥Grade 3", "value": "2 (14.3) n (%)"}, {"measurement": "TEAE: Sepsis", "setting": "Arm A N=14, ≥Grade 3", "value": "2 (14.3) n (%)"}, {"measurement": "TEAE: Skin and subcutaneous tissue disorders", "setting": "Arm A N=14, ≥Grade 3", "value": "0 n (%)"}, {"measurement": "TEAE: Stomatitis", "setting": "Arm A N=14, ≥Grade 3", "value": "0 n (%)"}, {"measurement": "TEAE: Vomiting", "setting": "Arm A N=14, ≥Grade 3", "value": "0 n (%)"}, {"measurement": "related TEAE: Aspartate aminotransferase increased", "setting": "Arm A N=14, ≥Grade 3", "value": "0 n (%)"}, {"measurement": "related TEAE: Blood and lymphatic system disorders", "setting": "Arm A N=14, ≥Grade 3", "value": "0 n (%)"}, {"measurement": "related TEAE: Decreased appetite", "setting": "Arm A N=14, ≥Grade 3", "value": "0 n (%)"}, {"measurement": "related TEAE: Differentiation syndrome", "setting": "Arm A N=14, ≥Grade 3", "value": "1 (7.1) n (%)"}, {"measurement": "related TEAE: Gastrointestinal disorders", "setting": "Arm A N=14, ≥Grade 3", "value": "0 n (%)"}, {"measurement": "related TEAE: General disorders and administration site conditions", "setting": "Arm A N=14, ≥Grade 3", "value": "0 n (%)"}, {"measurement": "related TEAE: Headache", "setting": "Arm A N=14, ≥Grade 3", "value": "0 n (%)"}, {"measurement": "related TEAE: Hypertriglyceridaemia", "setting": "Arm A N=14, ≥Grade 3", "value": "0 n (%)"}, {"measurement": "related TEAE: Hyperuricaemia", "setting": "Arm A N=14, ≥Grade 3", "value": "0 n (%)"}, {"measurement": "related TEAE: Increased appetite", "setting": "Arm A N=14, ≥Grade 3", "value": "0 n (%)"}, {"measurement": "related TEAE: Investigations", "setting": "Arm A N=14, ≥Grade 3", "value": "0 n (%)"}, {"measurement": "related TEAE: Leukocytosis", "setting": "Arm A N=14, ≥Grade 3", "value": "0 n (%)"}, {"measurement": "related TEAE: Metabolism and nutrition disorders", "setting": "Arm A N=14, ≥Grade 3", "value": "0 n (%)"}, {"measurement": "related TEAE: Nausea", "setting": "Arm A N=14, ≥Grade 3", "value": "0 n (%)"}, {"measurement": "related TEAE: Neoplasms benign, malignant and unspecified (incl cysts and polyps)", "setting": "Arm A N=14, ≥Grade 3", "value": "1 (7.1) n (%)"}, {"measurement": "related TEAE: Nervous system disorders", "setting": "Arm A N=14, ≥Grade 3", "value": "0 n (%)"}, {"measurement": "related TEAE: Thirst", "setting": "Arm A N=14, ≥Grade 3", "value": "0 n (%)"}, {"measurement": "related TEAE: Vomiting", "setting": "Arm A N=14, ≥Grade 3", "value": "0 n (%)"}, {"measurement": "Patients with Any TEAE", "setting": "Arm B N=10, Any Grade", "value": "10 (100.0) n (%)"}, {"measurement": "TEAE: Alanine aminotransferase increased", "setting": "Arm B N=10, Any Grade", "value": "2 (20.0) n (%)"}, {"measurement": "TEAE: Anaemia", "setting": "Arm B N=10, Any Grade", "value": "1 (10.0) n (%)"}, {"measurement": "TEAE: Aspartate aminotransferase increased", "setting": "Arm B N=10, Any Grade", "value": "2 (20.0) n (%)"}, {"measurement": "TEAE: Blood and lymphatic system disorders", "setting": "Arm B N=10, Any Grade", "value": "3 (30.0) n (%)"}, {"measurement": "TEAE: Constipation", "setting": "Arm B N=10, Any Grade", "value": "1 (10.0) n (%)"}, {"measurement": "TEAE: Decreased appetite", "setting": "Arm B N=10, Any Grade", "value": "0 n (%)"}, {"measurement": "TEAE: Disease progression", "setting": "Arm B N=10, Any Grade", "value": "2 (20.0) n (%)"}, {"measurement": "TEAE: Dyspnoea", "setting": "Arm B N=10, Any Grade", "value": "1 (10.0) n (%)"}, {"measurement": "TEAE: Epistaxis", "setting": "Arm B N=10, Any Grade", "value": "2 (20.0) n (%)"}, {"measurement": "TEAE: Fatigue", "setting": "Arm B N=10, Any Grade", "value": "2 (20.0) n (%)"}, {"measurement": "TEAE: Gastrointestinal disorders", "setting": "Arm B N=10, Any Grade", "value": "6 (60.0) n (%)"}, {"measurement": "TEAE: General disorders and administration site disorders", "setting": "Arm B N=10, Any Grade", "value": "3 (30.0) n (%)"}, {"measurement": "TEAE: Headache", "setting": "Arm B N=10, Any Grade", "value": "1 (20.0) n (%)"}, {"measurement": "TEAE: Hemorrhoids", "setting": "Arm B N=10, Any Grade", "value": "2 (20.0) n (%)"}, {"measurement": "TEAE: Hypertriglyceridaemia", "setting": "Arm B N=10, Any Grade", "value": "2 (20.0) n (%)"}, {"measurement": "TEAE: Hypoalbuminaemia", "setting": "Arm B N=10, Any Grade", "value": "0 n (%)"}, {"measurement": "TEAE: Hypocalcaemia", "setting": "Arm B N=10, Any Grade", "value": "1 (10.0) n (%)"}, {"measurement": "TEAE: Hypokalaemia", "setting": "Arm B N=10, Any Grade", "value": "3 (30.0) n (%)"}, {"measurement": "TEAE: Hypomagnaesemia", "setting": "Arm B N=10, Any Grade", "value": "0 n (%)"}, {"measurement": "TEAE: Hyponatraemia", "setting": "Arm B N=10, Any Grade", "value": "0 n (%)"}, {"measurement": "TEAE: Infections and Infestations", "setting": "Arm B N=10, Any Grade", "value": "6 (60.0) n (%)"}, {"measurement": "TEAE: Investigations", "setting": "Arm B N=10, Any Grade", "value": "3 (30.0) n (%)"}, {"measurement": "TEAE: Metabolism and nutrition disorders", "setting": "Arm B N=10, Any Grade", "value": "5 (50.0) n (%)"}, {"measurement": "TEAE: Musculoskeletal and connective tissue disorders", "setting": "Arm B N=10, Any Grade", "value": "2 (20.0) n (%)"}, {"measurement": "TEAE: Nausea", "setting": "Arm B N=10, Any Grade", "value": "3 (30.0) n (%)"}, {"measurement": "TEAE: Nervous System Disorders", "setting": "Arm B N=10, Any Grade", "value": "2 (20.0) n (%)"}, {"measurement": "TEAE: Oedema peripheral", "setting": "Arm B N=10, Any Grade", "value": "0 n (%)"}, {"measurement": "TEAE: Pain in extremity", "setting": "Arm B N=10, Any Grade", "value": "1 (10.0) n (%)"}, {"measurement": "TEAE: Platelet count decreased", "setting": "Arm B N=10, Any Grade", "value": "0 n (%)"}, {"measurement": "TEAE: Pneumonia", "setting": "Arm B N=10, Any Grade", "value": "2 (20.0) n (%)"}, {"measurement": "TEAE: Pruritus", "setting": "Arm B N=10, Any Grade", "value": "0 n (%)"}, {"measurement": "TEAE: Pyrexia", "setting": "Arm B N=10, Any Grade", "value": "0 n (%)"}, {"measurement": "TEAE: Respiratory, thoracic and mediastinal disorders", "setting": "Arm B N=10, Any Grade", "value": "3 (30.0) n (%)"}, {"measurement": "TEAE: Sepsis", "setting": "Arm B N=10, Any Grade", "value": "2 (20.0) n (%)"}, {"measurement": "TEAE: Skin and subcutaneous tissue disorders", "setting": "Arm B N=10, Any Grade", "value": "1 (10.0) n (%)"}, {"measurement": "TEAE: Stomatitis", "setting": "Arm B N=10, Any Grade", "value": "2 (20.0) n (%)"}, {"measurement": "TEAE: Vomiting", "setting": "Arm B N=10, Any Grade", "value": "1 (10.0) n (%)"}, {"measurement": "related TEAE: Aspartate aminotransferase increased", "setting": "Arm B N=10, Any Grade", "value": "1 (10.0) n (%)"}, {"measurement": "related TEAE: Blood and lymphatic system disorders", "setting": "Arm B N=10, Any Grade", "value": "1 (10.0) n (%)"}, {"measurement": "related TEAE: Decreased appetite", "setting": "Arm B N=10, Any Grade", "value": "0 n (%)"}, {"measurement": "related TEAE: Differentiation syndrome", "setting": "Arm B N=10, Any Grade", "value": "0 n (%)"}, {"measurement": "related TEAE: Gastrointestinal disorders", "setting": "Arm B N=10, Any Grade", "value": "1 (10.0) n (%)"}, {"measurement": "related TEAE: General disorders and administration site conditions", "setting": "Arm B N=10, Any Grade", "value": "0 n (%)"}, {"measurement": "related TEAE: Headache", "setting": "Arm B N=10, Any Grade", "value": "0 n (%)"}, {"measurement": "related TEAE: Hypertriglyceridaemia", "setting": "Arm B N=10, Any Grade", "value": "1 (10.0) n (%)"}, {"measurement": "related TEAE: Hyperuricaemia", "setting": "Arm B N=10, Any Grade", "value": "0 n (%)"}, {"measurement": "related TEAE: Increased appetite", "setting": "Arm B N=10, Any Grade", "value": "0 n (%)"}, {"measurement": "related TEAE: Investigations", "setting": "Arm B N=10, Any Grade", "value": "1 (10.0) n (%)"}, {"measurement": "related TEAE: Leukocytosis", "setting": "Arm B N=10, Any Grade", "value": "1 (10.0) n (%)"}, {"measurement": "related TEAE: Metabolism and nutrition disorders", "setting": "Arm B N=10, Any Grade", "value": "1 (10.0) n (%)"}, {"measurement": "related TEAE: Nausea", "setting": "Arm B N=10, Any Grade", "value": "1 (10.0) n (%)"}, {"measurement": "related TEAE: Neoplasms benign, malignant and unspecified (incl cysts and polyps)", "setting": "Arm B N=10, Any Grade", "value": "0 n (%)"}, {"measurement": "related TEAE: Nervous system disorders", "setting": "Arm B N=10, Any Grade", "value": "0 n (%)"}, {"measurement": "related TEAE: Thirst", "setting": "Arm B N=10, Any Grade", "value": "0 n (%)"}, {"measurement": "related TEAE: Vomiting", "setting": "Arm B N=10, Any Grade", "value": "1 (10.0) n (%)"}, {"measurement": "Patients with Any TEAE", "setting": "Arm B N=10, ≥Grade 3", "value": "8 (80.0) n (%)"}, {"measurement": "TEAE: Alanine aminotransferase increased", "setting": "Arm B N=10, ≥Grade 3", "value": "0 n (%)"}, {"measurement": "TEAE: Anaemia", "setting": "Arm B N=10, ≥Grade 3", "value": "0 n (%)"}, {"measurement": "TEAE: Aspartate aminotransferase increased", "setting": "Arm B N=10, ≥Grade 3", "value": "1 (10.0) n (%)"}, {"measurement": "TEAE: Blood and lymphatic system disorders", "setting": "Arm B N=10, ≥Grade 3", "value": "3 (30.0) n (%)"}, {"measurement": "TEAE: Constipation", "setting": "Arm B N=10, ≥Grade 3", "value": "0 n (%)"}, {"measurement": "TEAE: Decreased appetite", "setting": "Arm B N=10, ≥Grade 3", "value": "0 n (%)"}]}]}
